# Measurements reported in US9243255B2, “Bacterial strains, plasmids, method of producing bacterial strains capable of chemolithotrophic arsenites oxidation and uses thereof” (UNIWERSYTET WARSZAWSKI, priority 2012, dated 2016).
# Experiments:
# [1] = system: Agrobacterium tumefaciens LBA288; test: As(III) (sodium arsenite) growth inhibition / MIC; format: cell-based
# Method: (§1) FIG. 8. […] In order to compare the MICs for As(III), cultures were carried out in LB medium, with various concentrations of sodium arsenite (up to 20 mM). After 48 h of cultivation at 30° C., optical density of the cultures (OD600nm measurements of absorbance at 600 nm) was monitored.
# (§2) In all the conjugations, transconjugants harbouring the plasmid pARS1 were obtained. To confirm that the newly constructed strains, harbouring the plasmid pARS1, have an increased resistance to arsenic, analysis of MIC—minimal concentration of As(III), inhibiting the growth of the following strains: Agrobacterium tumefaciens ARS3 (derivative of A. tumefaciens LBA288 harbouring the plasmid pARS1), Brevundimonas sp. ARS4 (derivative of Brevundimonas sp. sp. OS24R harbouring the plasmid pARS1), P. aminophilus ARS5 (derivative of P. aminophilus JCM7686 harbouring the plasmid pARS1) was carried out. Wild-type strains were used as the control. Growth experiment and MIC analysis for As(III) was carried out in LB medium, with various concentrations of sodium arsenite (up to 20 mM). After 48 h of cultivation at 30° C., optical density of cultures at OD600nm was monitored. […] MIC for As(III) for A. tumefaciens LBA288 strain was 1 mM, while for its derivative, comprising the plasmid pARS1, 20 mM; for P. aminophilus JCM7686R strain 5 mM, while for its derivative, containing the plasmid pARS1, 20 mM. In turn Brevundimonas sp. OS24R could tolerate the maximum of 10 mM of As(III), and its derivative harbouring the plasmid pARS1 was resistant to 20 mM of As(III). The conducted analyses allowed to confirm that the derivative of the plasmid pSinA, comprising the ars module (sequence from 43229 to 50772) can be used for constructing strains with increased resistance to arsenic.
# [2] = system: Brevundimonas sp. OS24R; test: As(III) (sodium arsenite) growth inhibition / MIC; format: cell-based
# Method: as §1, §2
# [3] = system: Paracoccus aminophilus JCM7686; test: As(III) (sodium arsenite) growth inhibition / MIC; format: cell-based
# Method: as §1, §2
# [4] = system: Paracoccus alcaliphilus JCM7364R; test: Sodium arsenite growth inhibition; format: cell-based; conditions: P. alcaliphilus JCM7364R
# [5] = system: Sinorhizobium sp. M14; test: Resistance to As(III); format: cell-based
# [6] = system: A. tumefaciens D10; test: Resistance to As(III); format: cell-based, Agrobacterium tumefaciens; conditions: A. tumefaciens D10 with pSinA
# [7] = system: Paracoccus aminovorans JCM7685; test: Sodium arsenite growth inhibition; format: cell-based; conditions: P. aminovorans JCM7685
# [8] = system: Stenotrophomonas sp. LM24R; test: Sodium arsenite growth inhibition; format: cell-based
# [9] = system: Agrobacterium tumefaciens ARS3 (derivative of A. tumefaciens LBA288 harbouring the plasmid pARS1); test: MIC for As(III); format: cell-based; conditions: derivative with pARS1, LB medium, 48 h, 30° C.
# Method: as §1, §2
# [10] = system: Brevundimonas sp. ARS4 (derivative of Brevundimonas sp. OS24R harbouring the plasmid pARS1); test: MIC for As(III); format: cell-based; conditions: derivative with pARS1; LB medium, 48 h, 30° C.
# Method: as §1, §2
# [11] = system: P. aminophilus ARS5 (derivative of P. aminophilus JCM7686 harbouring the plasmid pARS1); test: MIC for As(III); format: cell-based; conditions: Paracoccus aminophilus, derivative with pARS1, LB medium, 48 h, 30° C.
# Method: as §1, §2
# [12] = system: Pseudomonas sp. OS29R; test: Resistance to As(III); format: cell-based; conditions: in words
compound,measurement,setting,value
O=[As]O [sodium arsenite],concentration of sodium arsenite that inhibits growth,[1]; A. tumefaciens LBA288,1 mM
same,MIC,"[1]; Agrobacterium tumefaciens, LBA288, LB medium, 48 h, 30° C., OD600nm",1000 µM
same,concentration of sodium arsenite that inhibits growth,[2]; Brevundimonas sp. OS24R,10 mM
same,resistance to As (III),"[2]; Brevundimonas sp. OS24R, in words",resistant
same,maximum of As(III) tolerated,"[2]; LB medium, 48 h, 30° C., OD600nm",≤ 10 mM
same,concentration of sodium arsenite that inhibits growth,[3]; P. aminophilus JCM7686,5 mM
same,MIC,"[3]; Paracoccus aminophilus, JCM7686, 48 h, read-out: MIC for As(III)",5 mM
same,concentration of sodium arsenite that inhibits growth,[4],1 mM
same,resistant to As (III) (up to),[5],up to 20 mM
same,resistant to As (III) (up to),[6],up to 15 mM
same,concentration of sodium arsenite that inhibits growth,[7],1 mM
same,concentration of sodium arsenite that inhibits growth,[8],1 mM
same,MIC,[9],20 mM
same,As(III) concentration the strain is resistant to,[10],20 mM
same,MIC,[11],20 mM
same,resistance to As (III),[12],resistant
